Measured values published in article PMC2164953, “Flexible synthesis of poison-frog alkaloids of the 5,8-disubstituted indolizidine-class. II: Synthesis of (-)-209B, (-)-231C, (-)-233D, (-)-235B", (-)-221I, and an epimer of 193E and pharmacological effects at neuronal nicotinic acetylcholine receptors” (Beilstein Journal of Organic Chemistry, 2007).
pIC50: −log10 of the molar value. Where “and” joins values, the source holds several entries; their conditions need not be identical. Identical values can stand only once.

Columns and labels:
[1] = target: T1, α7 nicotinic receptor (Homo sapiens, UniProt P36544); experiment: Two-electrode voltage-clamp recording of ACh-induced currents in X. laevis oocytes expressing recombinant α7 nicotinic receptor; format: cell-based; conditions: for fold higher potency for blockade of α7 than of α4β2 receptor: ratio of IC50 values, α7 over α4β2
T1 construct: expressed in transfected cells; host or cells: Xenopus laevis oocytes (nuclear cDNA injection)
Experimental: (§1) Figure 1 Inhibitory effect of (-)-231C on ACh-induced currents in X. laevis oocytes expressing recombinant nicotinic receptors. Currents were recorded in the voltage-clamp mode at -60 mV. Concentrations of ACh used were 1 μM for the α4β2 receptor and 100 μM for the α7 receptor. For test responses, oocytes were preincubated with (-)-231C for 3 min and then exposed to ACh with (-)-231C. A, representative traces showing the ACh-elicited currents in the absence and presence of (-)-231C (3 μM). Horizontal bars indicate the period of perfusion with ACh for 5 s. Vertical scale bars represent 0.5 μA on the α4β2 receptor, and 0.1 μA on the α7 receptor. B, concentration-response curves for (-)-231C on recombinant nicotinic receptors. Current responses to ACh in the presence of (-)-231C in each oocyte were normalized to the ACh responses (control responses) recorded in the same oocytes. Values represent the mean ± S.E.M. for five to six separate experiments.
as §1, with “Figure 2” for “Figure 1”, “of (-)-221I” for “of (-)-231C”, “with (-)-221I” for “with (-)-231C”, “with (-)-221I.” for “with (-)-231C.”, “for (-)-221I” for “for (-)-231C”, “five” for “five to six”
as §1, with “Figure 3” for “Figure 1”, “of (-)-epi-193E” for “of (-)-231C”, “with (-)-epi-193E” for “with (-)-231C”, “with (-)-epi-193E.” for “with (-)-231C.”, “for (-)-epi-193E” for “for (-)-231C”, “five” for “five to six”
(§2) Xenopus laevis oocytes were prepared as described previously. In brief, stage V-VI oocytes were isolated and microinjected with cDNAs encoding nicotinic receptor subunit into the nucleus. The α7 subunit cDNA was injected alone, whereas the mixture of α4 and β2 subunit cDNAs was injected in a ratio of 1:1. Oocytes were cultured at 19 °C for 3-7 days. An oocyte was placed in a tube-like chamber in which Ringer’s solution (82.5 mM NaCl, 2.5 mM KCl, 2.5 mM CaCl2, 1 mM MgCl2, and 5 mM HEPES, pH 7.4) containing 1 µM atropine was perfused by gravity (15 ml/min). Current responses were recorded under two-electrode voltage-clamp method. To apply a pulse of acetylcholine (ACh) to the oocyte, the perfusion fluid was switched to solution containing ACh, using a three-way Teflon solenoid valve (Parker Hannifin Corp., General Valve Division, Fairfield, NJ) controlled by a PC computer with pClamp7 software (Axon Instruments, Union City, CA). […]

[2] = target: T2, α4β2 nicotinic receptor (Homo sapiens, UniProt P17787+P43681); experiment: Two-electrode voltage-clamp recording of ACh-induced currents in X. laevis oocytes expressing recombinant α4β2 nicotinic receptor; format: cell-based
T2 construct: expressed in transfected cells; host or cells: Xenopus laevis oocytes (nuclear cDNA injection)
Experimental: as §1
as §1, with “Figure 2” for “Figure 1”, “of (-)-221I” for “of (-)-231C”, “with (-)-221I” for “with (-)-231C”, “with (-)-221I.” for “with (-)-231C.”, “for (-)-221I” for “for (-)-231C”, “five” for “five to six”
as §1, with “Figure 3” for “Figure 1”, “of (-)-epi-193E” for “of (-)-231C”, “with (-)-epi-193E” for “with (-)-231C”, “with (-)-epi-193E.” for “with (-)-231C.”, “for (-)-epi-193E” for “for (-)-231C”, “five” for “five to six”
as §2

[3] = test system: nicotinic acetylcholine receptors; parameters: method as in PMID 1815137; conditions: cited from earlier work
[4] = target: T2, α4β2 nicotinic receptor; parameters: method as in PMID 15258256; conditions: cited from earlier work

T2 sequence (P43681 29-627 limits assumed): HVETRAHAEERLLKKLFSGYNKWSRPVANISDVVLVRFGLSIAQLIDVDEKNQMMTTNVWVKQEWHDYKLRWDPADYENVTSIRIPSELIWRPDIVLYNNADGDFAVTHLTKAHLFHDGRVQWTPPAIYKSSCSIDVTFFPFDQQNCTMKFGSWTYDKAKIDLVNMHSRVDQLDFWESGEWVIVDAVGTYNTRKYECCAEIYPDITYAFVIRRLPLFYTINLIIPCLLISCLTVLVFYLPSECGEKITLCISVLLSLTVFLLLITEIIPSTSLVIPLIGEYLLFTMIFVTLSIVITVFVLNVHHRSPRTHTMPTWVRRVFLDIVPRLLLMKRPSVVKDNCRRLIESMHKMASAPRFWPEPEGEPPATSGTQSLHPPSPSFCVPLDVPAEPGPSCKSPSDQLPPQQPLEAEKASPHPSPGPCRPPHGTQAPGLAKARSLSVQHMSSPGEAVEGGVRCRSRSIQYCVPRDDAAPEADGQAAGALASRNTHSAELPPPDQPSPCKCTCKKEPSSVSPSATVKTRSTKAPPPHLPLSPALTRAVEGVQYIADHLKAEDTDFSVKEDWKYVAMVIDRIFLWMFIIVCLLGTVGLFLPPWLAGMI
T2 sequence (P17787 26-502): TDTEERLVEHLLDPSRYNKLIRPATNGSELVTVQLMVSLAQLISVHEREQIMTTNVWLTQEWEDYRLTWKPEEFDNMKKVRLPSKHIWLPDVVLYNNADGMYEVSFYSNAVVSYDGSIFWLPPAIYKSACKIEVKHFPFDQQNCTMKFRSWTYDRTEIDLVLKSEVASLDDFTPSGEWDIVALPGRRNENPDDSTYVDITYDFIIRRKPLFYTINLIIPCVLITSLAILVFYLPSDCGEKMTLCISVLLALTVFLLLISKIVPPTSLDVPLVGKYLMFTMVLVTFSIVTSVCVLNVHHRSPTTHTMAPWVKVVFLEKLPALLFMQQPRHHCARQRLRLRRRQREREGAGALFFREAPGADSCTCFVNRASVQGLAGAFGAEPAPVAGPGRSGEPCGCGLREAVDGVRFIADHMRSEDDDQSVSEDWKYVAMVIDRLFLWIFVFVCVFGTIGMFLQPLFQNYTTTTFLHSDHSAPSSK
T1 sequence (P36544 23-502): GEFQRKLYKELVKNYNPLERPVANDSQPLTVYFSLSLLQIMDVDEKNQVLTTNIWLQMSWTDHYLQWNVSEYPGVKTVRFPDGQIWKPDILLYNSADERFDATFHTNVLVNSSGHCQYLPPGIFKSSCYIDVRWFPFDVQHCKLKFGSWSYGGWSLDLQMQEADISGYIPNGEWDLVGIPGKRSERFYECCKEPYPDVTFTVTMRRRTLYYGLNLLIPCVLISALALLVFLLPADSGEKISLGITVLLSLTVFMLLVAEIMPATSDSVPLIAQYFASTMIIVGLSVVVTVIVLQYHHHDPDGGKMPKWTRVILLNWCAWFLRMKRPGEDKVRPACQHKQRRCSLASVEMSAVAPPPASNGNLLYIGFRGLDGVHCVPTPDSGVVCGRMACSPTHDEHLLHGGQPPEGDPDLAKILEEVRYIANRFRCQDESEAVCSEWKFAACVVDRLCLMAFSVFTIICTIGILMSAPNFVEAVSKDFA

Row | SMILES | pIC50 [1] | fold higher potency for blockade of α7 than of α4β2 receptor [1] [fold] | pIC50 [2] | mode of action at nicotinic receptors [3] | other results
1 | CCC=CCC1CCC(CC)C2CCCN12 (single isomer, unassigned; (-)) [(-)-221I] | 5.36 | 5.3 | 4.64 | – | –
2 | C=CCC1CCC(CC)C2CCCN12 (single isomer, unassigned; (-)) [(-)-epi-193E] | 5.04 | 2.0 | 4.74 | – | –
3 | CCCCC[C@@H]1CC[C@@H](C)[C@@H]2CCCN12 [(-)-209B, (5S,8R,9S)-(-)-8-Methyl-5-pentyloctahydroindolizine] | – | – | – | noncompetitive nicotinic blockers | –
4 | C#C/C=C\CCC[C@@H]1CC[C@@H](C)[C@@H]2CCCN12 [(-)-231C, (5R,8R,9S)-(-)-5-Hept-4-en-6-ynyl-8-methyloctahydroindolizine] | 4.97 | – | 5.82 | – | ACh-elicited responses ([1]; 3 μM compound, oocytes expressing α7 receptor): not strongly affected; peak amplitude of ACh-elicited currents ([2]; 3 μM compound, oocytes expressing α4β2 receptor): greatly decreased; fold higher sensitivity/potency for blockade of α4β2 than of α7 receptor ([2]; ratio of IC50 values, α4β2 over α7): 7.0 fold and 6- to 7 fold
5 | CC/C=C\CCC[C@@H]1CC[C@@H](C)[C@@H]2CCCN12 [(-)-235B", (5R,8R,9S)-(-)-5-Hept-4-enyl-8-methyloctahydroindolizine] | – | – | – | noncompetitive nicotinic blockers | selectivity for blockade of α4β2 over α7 receptor ([4]; previous data): 6- to 7 fold; effect at the α4β2 nicotinic receptor ([4]; several nicotinic receptor subtypes tested): selective and potent blocking effects; potency at α4β2 receptor compared with dihydro-β-erythroidine ([4]; versus classical α4β2 competitive antagonist): comparable; potency in blocking the α4β2 receptor relative to (-)-231C ([2]; fold greater than (-)-231C, previous (ref 3) versus present data): approximately 20 fold
